Results published in PMC3598725, “Transporter engineering for improved tolerance against alkane biofuels in Saccharomyces cerevisiae” (Biotechnology for Biofuels, 2013).

Tests used:
ABC2 = target: T1, ABC2 (Yarrowia lipolytica, UniProt Q6CBB8); assay: intracellular alkane level by GC, S. cerevisiae expressing transporter vs empty plasmid; type: cell-based; details: 48 h, whole-cell efflux, indirect
T1 construct: gene YALI0_C20265g; full-length, C-terminal 6xHis tag, pYES2 (GAL1) in S. cerevisiae BY4741; 165 kDa on western blot; plasma membrane
T1 sequence (Q6CBB8 1-1469): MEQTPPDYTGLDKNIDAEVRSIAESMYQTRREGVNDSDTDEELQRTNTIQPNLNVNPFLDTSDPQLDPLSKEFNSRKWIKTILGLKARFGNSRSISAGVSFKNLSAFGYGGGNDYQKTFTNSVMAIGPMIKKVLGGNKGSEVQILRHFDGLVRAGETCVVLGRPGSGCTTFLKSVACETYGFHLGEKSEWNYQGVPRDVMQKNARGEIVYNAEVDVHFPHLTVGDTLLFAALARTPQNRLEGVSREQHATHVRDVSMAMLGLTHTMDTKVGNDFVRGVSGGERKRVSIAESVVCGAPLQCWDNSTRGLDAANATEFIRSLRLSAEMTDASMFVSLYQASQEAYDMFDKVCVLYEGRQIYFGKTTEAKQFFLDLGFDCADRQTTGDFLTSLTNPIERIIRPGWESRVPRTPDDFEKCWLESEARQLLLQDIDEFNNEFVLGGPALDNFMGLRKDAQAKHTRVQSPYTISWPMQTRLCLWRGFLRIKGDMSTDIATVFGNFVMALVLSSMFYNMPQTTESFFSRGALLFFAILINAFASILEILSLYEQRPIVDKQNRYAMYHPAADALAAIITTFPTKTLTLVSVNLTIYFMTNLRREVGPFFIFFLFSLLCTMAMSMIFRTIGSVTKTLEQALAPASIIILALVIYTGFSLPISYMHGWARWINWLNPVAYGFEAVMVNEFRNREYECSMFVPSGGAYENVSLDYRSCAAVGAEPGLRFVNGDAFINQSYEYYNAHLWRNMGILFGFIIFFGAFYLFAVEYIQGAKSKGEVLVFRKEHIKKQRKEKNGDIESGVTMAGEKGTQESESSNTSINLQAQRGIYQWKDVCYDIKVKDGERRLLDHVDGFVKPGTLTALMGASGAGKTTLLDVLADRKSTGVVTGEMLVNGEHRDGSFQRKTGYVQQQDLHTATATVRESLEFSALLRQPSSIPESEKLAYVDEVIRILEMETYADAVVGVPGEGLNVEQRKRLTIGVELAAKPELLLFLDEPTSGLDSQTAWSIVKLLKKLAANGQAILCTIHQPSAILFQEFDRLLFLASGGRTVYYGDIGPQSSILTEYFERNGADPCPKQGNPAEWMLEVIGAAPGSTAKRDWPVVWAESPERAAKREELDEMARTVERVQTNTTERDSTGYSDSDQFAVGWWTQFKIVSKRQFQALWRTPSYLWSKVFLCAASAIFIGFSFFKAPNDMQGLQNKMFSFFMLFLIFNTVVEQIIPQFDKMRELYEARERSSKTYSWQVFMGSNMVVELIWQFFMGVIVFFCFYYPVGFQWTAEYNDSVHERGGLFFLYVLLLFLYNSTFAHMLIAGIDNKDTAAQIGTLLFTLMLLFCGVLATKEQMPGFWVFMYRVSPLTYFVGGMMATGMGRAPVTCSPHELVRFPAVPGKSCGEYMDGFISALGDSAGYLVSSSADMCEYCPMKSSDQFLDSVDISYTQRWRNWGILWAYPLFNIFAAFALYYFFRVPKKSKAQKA

ABC3 = target: T2, ABC3 (Yarrowia lipolytica, UniProt Q6CFY4); assay: as above; type: cell-based; details: 48 h, whole-cell efflux, indirect
T2 construct: gene YALI0_B02544g; full-length, C-terminal 6xHis tag, pYES2 (GAL1) in S. cerevisiae BY4741; 167 kDa on western blot; plasma membrane
T2 sequence (Q6CFY4 1-1485): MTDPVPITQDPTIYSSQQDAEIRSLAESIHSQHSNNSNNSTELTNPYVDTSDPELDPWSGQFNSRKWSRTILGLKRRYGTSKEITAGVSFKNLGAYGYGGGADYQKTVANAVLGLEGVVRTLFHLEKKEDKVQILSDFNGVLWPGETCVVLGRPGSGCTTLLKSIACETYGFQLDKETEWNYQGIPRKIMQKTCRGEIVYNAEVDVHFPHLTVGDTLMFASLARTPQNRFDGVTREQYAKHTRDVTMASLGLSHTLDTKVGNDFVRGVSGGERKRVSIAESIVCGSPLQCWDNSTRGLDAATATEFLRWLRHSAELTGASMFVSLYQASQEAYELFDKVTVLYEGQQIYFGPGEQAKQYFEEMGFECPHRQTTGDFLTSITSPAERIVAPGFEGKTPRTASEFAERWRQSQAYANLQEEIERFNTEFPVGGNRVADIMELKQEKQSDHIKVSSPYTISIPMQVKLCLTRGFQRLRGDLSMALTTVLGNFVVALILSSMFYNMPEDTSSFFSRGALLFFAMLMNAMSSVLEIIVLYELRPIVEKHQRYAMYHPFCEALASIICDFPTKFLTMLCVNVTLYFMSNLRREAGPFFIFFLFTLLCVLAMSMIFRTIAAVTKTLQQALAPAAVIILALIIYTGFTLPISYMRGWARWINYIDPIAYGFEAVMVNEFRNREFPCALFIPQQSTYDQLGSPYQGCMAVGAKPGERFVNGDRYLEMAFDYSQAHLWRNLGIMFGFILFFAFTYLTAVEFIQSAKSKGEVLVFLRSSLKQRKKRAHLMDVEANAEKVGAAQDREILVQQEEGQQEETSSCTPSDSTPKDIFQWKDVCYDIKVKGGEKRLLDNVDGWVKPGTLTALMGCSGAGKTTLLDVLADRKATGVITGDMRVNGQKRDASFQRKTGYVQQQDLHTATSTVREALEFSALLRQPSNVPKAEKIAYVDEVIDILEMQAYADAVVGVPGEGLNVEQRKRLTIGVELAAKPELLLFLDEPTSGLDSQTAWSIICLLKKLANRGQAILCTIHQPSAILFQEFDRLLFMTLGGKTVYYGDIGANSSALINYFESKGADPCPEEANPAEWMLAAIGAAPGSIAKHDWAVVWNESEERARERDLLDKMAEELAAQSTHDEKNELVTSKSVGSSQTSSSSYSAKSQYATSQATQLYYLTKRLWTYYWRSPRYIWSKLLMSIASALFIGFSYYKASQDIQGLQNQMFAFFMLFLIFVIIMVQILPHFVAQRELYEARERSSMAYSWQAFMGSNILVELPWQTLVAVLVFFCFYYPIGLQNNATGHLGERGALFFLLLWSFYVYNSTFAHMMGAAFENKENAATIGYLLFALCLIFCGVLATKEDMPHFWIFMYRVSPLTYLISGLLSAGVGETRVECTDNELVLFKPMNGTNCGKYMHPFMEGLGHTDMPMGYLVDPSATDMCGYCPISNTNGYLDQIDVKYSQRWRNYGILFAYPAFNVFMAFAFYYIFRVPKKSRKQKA

Compound	fold lower intracellular level (ABC2; 0.5% (vol/vol) decane)	fold lower intracellular level (ABC3; 0.5% (vol/vol) decane)	fold lower intracellular level (ABC2; 20% (vol/vol) undecane)	fold lower intracellular level (ABC3; 20% (vol/vol) undecane)
CCCCCCCCCC [decane]	~ 5 fold	~ 5 fold		
CCCCCCCCCCC [undecane]			~ 30 fold	~ 30 fold
